Key:
[1] = target: T1, wild type PKR (Homo sapiens, UniProt P30613); test: Cell based ATP assay in purified red blood cells (Cell-Titer-Glo); parameters: endogenous in cells; host or cells: purified red blood cells from healthy volunteers; conditions: Table 2; RBCs, overnight at 37° C., ATP levels
Method in brief: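 RBCs from healthy human donors' K2EDTA blood were leukocyte-depleted by filtration and resuspended in AGAM (PBS, 1% glucose, adenine, mannitol). Cells at 1×10^7 cells/mL were incubated overnight at 37 °C with serially diluted compound at 0.1% DMSO, and ATP was read by Cell-Titer-Glo luminescence.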

[2] = target: PKR K410E (Homo sapiens, UniProt P30613, K410E); test: PKR mutant assay (K410E), AC50, LDH/NADH-coupled, absorbance at 340 nm; assay type: biochemical; conditions: Table 2; enzyme assay
Method in brief: (§1)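 Human PKR, wild type or K410E/R510Q mutant (40-400 ng/well), preincubated 60 min at room temperature with compound (11-point 3-fold series from 100 μM, 1% DMSO) in Tris pH 7.5/KCl/MgCl2 buffer with PEP 0.1-0.5 mM, 180 μM NADH, LDH. ADP (0.2-1.65 mM) started the reaction; LDH-coupled NADH consumption followed at 340 nm.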

[3] = target: T1, wild type PKR; test: PKR (wild type) enzyme AC50 assay, LDH/NADH-coupled, absorbance at 340 nm; assay type: biochemical; conditions: Table 2; enzyme assay; read-out: PKR WT AC50
Method in brief: as §1

[4] = target: PKR R510Q (Homo sapiens, UniProt P30613, R510Q); test: PKR mutant assay (R510Q), AC50, LDH/NADH-coupled, absorbance at 340 nm; assay type: biochemical; conditions: Table 2, enzyme assay; for AC50: read-out: PK R510Q AC50
Method in brief: as §1

T1 sequence (P30613 whole entry): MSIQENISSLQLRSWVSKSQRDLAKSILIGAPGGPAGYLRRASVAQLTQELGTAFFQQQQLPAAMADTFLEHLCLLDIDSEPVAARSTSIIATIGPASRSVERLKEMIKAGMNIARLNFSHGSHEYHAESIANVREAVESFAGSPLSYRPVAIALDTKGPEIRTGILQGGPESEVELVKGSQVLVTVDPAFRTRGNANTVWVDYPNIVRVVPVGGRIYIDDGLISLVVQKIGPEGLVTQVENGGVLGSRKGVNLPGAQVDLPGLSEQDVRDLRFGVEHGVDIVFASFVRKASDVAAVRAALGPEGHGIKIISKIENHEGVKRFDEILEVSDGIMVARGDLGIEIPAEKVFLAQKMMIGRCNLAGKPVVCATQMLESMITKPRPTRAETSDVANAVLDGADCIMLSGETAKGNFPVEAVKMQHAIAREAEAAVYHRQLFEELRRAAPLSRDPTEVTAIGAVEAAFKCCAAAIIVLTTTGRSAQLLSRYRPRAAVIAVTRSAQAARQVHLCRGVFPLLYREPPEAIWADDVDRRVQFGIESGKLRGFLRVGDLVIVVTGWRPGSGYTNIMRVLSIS
Sequence of PKR K410E (P30613 whole entry K410E): as the sequence (P30613 whole entry) above, with K410E counted along it
Sequence of PKR R510Q (P30613 whole entry R510Q): as the sequence (P30613 whole entry) above, with R510Q counted along it

AC50 [1] [nM]	AC50 [2] [nM]	AC50 [3] [nM]	AC50 [4] [nM]	Cell based ATP assay AC50 [1]	PK R510Q AC50 [4]	SMILES
> 1000	< 300	< 300	301 to 800	–	–	Cn1c2nc(C(O)c3ccccc3)sc2c2cnn(Cc3cccc4[nH]ncc34)c(=O)c21 (stereo not drawn) [Compound 117]
> 1000	< 300	< 300	< 300	–	–	Cn1c2nc(Cc3cccc(CO)c3)sc2c2cnn(Cc3cccc4[nH]ncc34)c(=O)c21 [Compound 118]
≤ 1000	< 300	< 300	< 300	–	–	CC(c1ccccc1)c1nc2c(s1)c1cnn(Cc3cccc4[nH]ncc34)c(=O)c1n2C (stereo not drawn) [Compound 119]
≤ 1000	301 to 800	301 to 800	301 to 800	–	–	CC(c1ccccc1)c1nc2c(s1)c1cnn(Cc3cccc4c3cnn4C)c(=O)c1n2C (stereo not drawn) [Compound 120]
> 1000	> 800	301 to 800	301 to 800	–	–	Cn1c2nc(SCc3ccccc3)sc2c2cnn(Cc3cccc4[nH]ncc34)c(=O)c21 [Compound 121]
≤ 1000	< 300	< 300	< 300	–	–	Cn1c2nc(Cc3cc[nH]n3)sc2c2cnn(Cc3ccc4c(c3)OCCO4)c(=O)c21 [Compound 122]
≤ 1000	< 300	< 300	< 300	–	–	COc1ccc(Cn2ncc3c4sc(Cc5cc[nH]n5)nc4n(C)c3c2=O)cc1 [Compound 123]
≤ 1000	< 300	< 300	< 300	–	–	Cn1c2nc(CCO)sc2c2cnn(Cc3cccc4[nH]ncc34)c(=O)c21 [Compound 124]
> 1000	> 800	> 800	301 to 800	–	–	CNCc1nc2c(s1)c1cnn(Cc3cccc4[nH]ncc34)c(=O)c1n2C [Compound 125]
≤ 1000	< 300	< 300	< 300	–	–	Cn1c2nc(C(C)(O)c3ccccc3)sc2c2cnn(Cc3cccc4[nH]ncc34)c(=O)c21 (stereo not drawn) [Compound 126]
≤ 1000	< 300	< 300	< 300	–	–	Cn1c2nc(C(C(N)=O)c3ccccc3)sc2c2cnn(Cc3cccc4[nH]ncc34)c(=O)c21 (stereo not drawn) [Compound 127]
> 1000	301 to 800	< 300	301 to 800	–	–	Cn1c2nc(S(=O)(=O)Cc3ccccc3)sc2c2cnn(Cc3cccc4[nH]ncc34)c(=O)c21 [Compound 128]
> 1000	> 800	> 800	> 800	–	–	CSc1nc2c(s1)c1cnn(Cc3csc(-n4c(C)ccc4C)n3)c(=O)c1n2C [Compound 129]
≤ 1000	> 800	> 800	301 to 800	–	–	Cn1c2nc(C(O)c3ccccn3)sc2c2cnn(Cc3cccc4[nH]ncc34)c(=O)c21 (stereo not drawn) [Compound 130]
> 1000	< 300	301 to 800	< 300	–	–	COC(=O)Cc1nc2c(s1)c1cnn(Cc3cccc4[nH]ncc34)c(=O)c1n2C [Compound 131]
> 1000	301 to 800	> 800	301 to 800	–	–	Cn1c2nc(CN)sc2c2cnn(Cc3cccc4[nH]ncc34)c(=O)c21 [Compound 132]
> 1000	> 800	> 800	> 800	–	–	Cn1c2nc(C(c3cccc4[nH]ncc34)S(=O)(=O)c3ccccc3)sc2c2cnn(Cc3cccc4[nH]ncc34)c(=O)c21 (stereo not drawn) [Compound 133]
> 1000	< 300	> 800	301 to 800	–	–	COC(=O)C(c1ccccc1)c1nc2c(s1)c1cnn(Cc3cccc4[nH]ncc34)c(=O)c1n2C (stereo not drawn) [Compound 134]
–	> 800	> 800	–	No Fit	No Fit	Cn1c2nc(Nc3ccccc3)sc2c2cnn(Cc3cccc4[nH]ncc34)c(=O)c21 [Compound 135]
≤ 1000	< 300	< 300	< 300	–	–	Cn1c2nc(C(N)c3ccccc3)sc2c2cnn(Cc3cccc4[nH]ncc34)c(=O)c21 (stereo not drawn) [Compound 136]
> 1000	< 300	301 to 800	< 300	–	–	Cn1c2nc(CC(N)=O)sc2c2cnn(Cc3cccc4[nH]ncc34)c(=O)c21 [Compound 137]
> 1000	< 300	301 to 800	301 to 800	–	–	Cn1c2nc(C(=O)NO)sc2c2cnn(Cc3cccc4[nH]ncc34)c(=O)c21 [Compound 138]

AC50 [1] [nM]	AC50 [2] [nM]	AC50 [3] [nM]	AC50 [4] [nM]	Cell based ATP assay AC50 [1]	PK R510Q AC50 [4]	SMILES
> 1000	> 800	> 800	> 800	–	–	Cn1c2nc(C3(c4ccccc4)CC3)sc2c2cnn(Cc3cccc4[nH]ncc34)c(=O)c21 [Compound 140]
≤ 1000	< 300	< 300	< 300	–	–	Cn1c2nc(S(N)(=O)=O)sc2c2cnn(Cc3cccc4[nH]ncc34)c(=O)c21 [Compound 141]
≤ 1000	< 300	< 300	301 to 800	–	–	Cn1c2nc(CNS(C)(=O)=O)sc2c2cnn(Cc3cccc4[nH]ncc34)c(=O)c21 [Compound 142]
> 1000	< 300	< 300	< 300	–	–	Cn1c2nc(Cc3cccc4[nH]ncc34)sc2c2cnn(Cc3cccc4[nH]ncc34)c(=O)c21 [Compound 143]
≤ 1000	< 300	< 300	< 300	–	–	COc1cccc(Cn2ncc3c4sc(Cc5cc[nH]n5)nc4n(C)c3c2=O)c1 [Compound 144]
> 1000	301 to 800	301 to 800	> 800	–	–	Cn1c2nc(C#N)sc2c2cnn(Cc3csc(N)n3)c(=O)c21 [Compound 145]
≤ 1000	< 300	301 to 800	301 to 800	–	–	Cn1c2nc(C(N)=O)sc2c2cnn(Cc3csc(N)n3)c(=O)c21 [Compound 146]
≤ 1000	< 300	< 300	301 to 800	–	–	Cn1c2nc(C#N)sc2c2cnn(Cc3cccc(N)n3)c(=O)c21 [Compound 147]
≤ 1000	< 300	< 300	< 300	–	–	Cn1c2nc(C(O)c3cc[nH]n3)sc2c2cnn(Cc3cccc4[nH]ncc34)c(=O)c21 (stereo not drawn) [Compound 148]
> 1000	301 to 800	301 to 800	301 to 800	–	–	Cn1c2nc(NCc3ccccc3)sc2c2cnn(Cc3cccc4[nH]ncc34)c(=O)c21 [Compound 149]
> 1000	> 800	> 800	> 800	–	–	Cn1c2nc(Cc3ccc(Cl)nc3)sc2c2cnn(Cc3cccc4[nH]ncc34)c(=O)c21 [Compound 150]
≤ 1000	< 300	< 300	< 300	–	–	Cn1c2nc(Cc3ccccn3)sc2c2cnn(Cc3cccc4[nH]ncc34)c(=O)c21 [Compound 151]
≤ 1000	> 800	> 800	> 800	–	–	Cn1c2nc(Cc3cncnc3)sc2c2cnn(Cc3cccc4[nH]ncc34)c(=O)c21 [Compound 153]
≤ 1000	< 300	< 300	< 300	–	–	Cn1c2nc(Cc3ccc4[nH]ncc4c3)sc2c2cnn(Cc3cccc4[nH]ncc34)c(=O)c21 [Compound 154]
≤ 1000	< 300	301 to 800	< 300	–	–	Cn1c2nc(Cc3cccc(S(N)(=O)=O)c3)sc2c2cnn(Cc3cccc4[nH]ncc34)c(=O)c21 [Compound 155]
≤ 1000	< 300	301 to 800	< 300	–	–	Cn1c2nc(Cc3ccc4cn[nH]c4c3)sc2c2cnn(Cc3cccc4[nH]ncc34)c(=O)c21 [Compound 156]
≤ 1000	< 300	< 300	< 300	–	–	Cn1ccc(Cc2nc3c(s2)c2cnn(Cc4cccc5[nH]ncc45)c(=O)c2n3C)n1 [Compound 157]
≤ 1000	< 300	< 300	< 300	–	–	Cn1c2nc(C(N)=O)sc2c2cnn(Cc3cccc(N)n3)c(=O)c21 [Compound 158]
≤ 1000	< 300	< 300	< 300	–	–	Cc1cccc(Cc2nc3c(s2)c2cnn(Cc4cccc5[nH]ncc45)c(=O)c2n3C)n1 [Compound 159]
≤ 1000	301 to 800	301 to 800	301 to 800	–	–	Cn1c2nc(Cc3cc(C(F)(F)F)[nH]n3)sc2c2cnn(Cc3cccc4[nH]ncc34)c(=O)c21 [Compound 160]
> 1000	> 800	> 800	> 800	–	–	Cn1c2nc(Cc3ccncc3)sc2c2cnn(Cc3cccc4[nH]ncc34)c(=O)c21 [Compound 161]

SMILES	AC50 [1] [nM]	AC50 [2] [nM]	AC50 [3] [nM]	AC50 [4] [nM]	Cell based ATP assay AC50 [1]	PK R510Q AC50 [4]
CC(=O)NCc1nc2c(s1)c1cnn(Cc3cccc4[nH]ncc34)c(=O)c1n2C [Compound 139]	≤ 1000	< 300	< 300	< 300	–	–
Cn1c2nc(C(O)(C(N)=O)c3ccccc3)sc2c2cnn(Cc3cccc4[nH]ncc34)c(=O)c21 (stereo not drawn) [Compound 152]	≤ 1000	< 300	301 to 800	301 to 800	–	–

Reference: patent US11957680B2, “Pyruvate kinase activators for use in treating blood disorders” (Agios Pharmaceuticals, Inc., priority 2017, dated 2024)
